According to patent US11542476B2, “Advanced pulmonary models” (EMULATE, INC., priority 2017, dated 2023):
“Also recorded” adds a separate entry of the source.

How the values were obtained:
P. aeruginosa = assay type: cell-based, Pseudomonas aeruginosa; settings: lower concentrations
Experimental: Mature small airway chips at air-liquid interface (ALI) were gently washed with PBS to remove excess mucus. Cells were inoculated with 2-3×10^6 colony forming units (CFUs) in Hank's balanced salt solution (HBSS) for 2 hours. At the end of the incubation, the inoculum was removed and the cells were washed 3× with phosphate buffer saline (PBS) to remove any nonadherent bacteria. PBS was removed and cells were incubated at ALI up to 24 hours (h) under flow in the bottom channel but not in the top channel.
After an exemplary on-chip infection protocol, including removing nonadherent bacteria, a test compound was immediately added to the top (apical) and bottom (basal) channels then cells are cultured under flow using media containing the anti-microbial compound, for 24 hours. Exemplary test compound amounts are at least 0.1 μg/ml, up to 50 μg/ml, up to 100 μg/ml, up to 500 μg/ml. In one embodiment, an exemplary test compound is a drug Imipenem.
More specifically, in one embodiment of an Airway on-chip, duplicate chips were infected with PA 5919 WT or PA 5890 Mutant as described herein. Then, Imipenem was added to apical and basolateral fluids (cell media) for treatment with Imipenem at 50, 100 and 500 μg/ml for 24 hours with at least one chip without Imipenem. […] Lysates were serially diluted for CFU quantification. […]
Assay readouts: Viability of extracellular bacteria (apical sampling). […]

human neutrophil [1] = assay: Neutrophil recruitment/attachment in Airway-on-Chip model of acute asthma exacerbation (HRV-16 infection, IL-13 stimulation); assay type: cell-based
Experimental: In this embodiment, an exemplary respiratory virus, e.g., Rhinovirus, was added to the upper channel of the chip, IL-13 was used to stimulate cells, and neutrophils were added to the lower channel, see, FIG. 14A.
See, FIG. 14B and FIG. 14C.
HRV-16 is represented as small green dots in the upper channel while neutrophil cells (also described as polymorphonuclear leukocytes (PMN)) are represented as large purple spots in the lower channel. […] Treatments included HRV-16 alone infected cells, IL-13 alone treated cells, HRV-16 and (+) IL-13 treated cells, HRV-16+CXCR2in (inhibitor) treated cells, and HRV-16+IL-13+CXCR2in. […] FIG. 14C is a graphical comparison showing PMN (neutrophil) cells counts as % of untreated cells and cells treated with combinations shown for IL-13, HRV, and CXCR2 (in) treatments. Quantification of neutrophil recruitment (** p<0.01; **** p<0.001).

human neutrophil [2] = assay: Neutrophil adhesion, crawling and trans-migration out of the endothelial channel, HRV-16 infected Airway-on-Chip; assay type: cell-based; settings: HRV-16 24 hpi
Text: Once recruited to the endothelium, neutrophil movement can be recorded and extravasation monitored as N (number) of spots vs. time (e.g. up to 300-600 seconds).
Thus, migratory cell potential, as extravasation, is identified in graphs below each of these micrographs, FIG. 15A and FIG. 15B, showing the number of white spots (N spots) counted over time for each treatment. For HRV-16 infection alone, the number of spots decreases as the cells move into the cell layer, see, FIG. 15C. […] Extravasation in general refers to the movement of white blood cells into the tissues surrounding them (e.g. leukocyte extravasation), also known as diapedesis.

[3] = tested on: host cells of Airway On-Chip; assay: TUNEL apoptosis staining on Airway On-Chip; assay type: cell-based, human; settings: 3 μM for 3 h at 37° C.; positive control
Experimental: One embodiment of an Airway On-Chip was infected as described above for 2 hours and then treated 50 μg/ml tetracycline for 24 h (top and bottom channels under flow) for 24 h in order to limit bacterial replication (to avoid over-replication and cell lifting). Using this methodology, we performed longer infections on an airway chip and avoided cell death at 24 h. At 24 h, chips were fixed with 4% paraformaldehyde for 15 minutes and subsequently permeabilized with 0.25% triton in PBS. Apoptosis staining was performed following the Click-iT™ Plus TUNEL Assay for In Situ Apoptosis Detection, Alexa Fluor 647 assay: Click-iT™ Plus TUNEL Assay, Thermo Fisher Scientific Inc., 6 Nov. 2017.
The TUNEL assay is based on the incorporation of modified dUTPs by the enzyme terminal deoxynucleotidyl transferase (TdT) at the 3′-OH ends of fragmented DNA, a hallmark as well as the ultimate determinate of apoptosis. ClickiT™ Plus TUNEL assay with the Alexa Fluor™ 647 dye was utilized to detect the fragment DNA (purple), nuclei were labelled with DAPI.
Staurosporin, a prototypical ATP-competitive kinase inhibitor, was used as a positive control in this assay. […] As an additional positive control, chips were treated with 1 unit of DNAse I for 30 minutes at room temperature to induce TUNEL positive DNA strand breaks.

goblet cells = assay: IL-13 induced goblet cell hyperplasia in Airway-on-Chip (MUC5AC staining); assay type: cell-based, human
Text: As an exemplary immuno-modulatory compound, addition of IL-13 to an Airway-on-Chip induced changes in epithelial cell layers in the upper channel with an air interface and endothelial cells in the lower channel under media fluid flow conditions are shown. It was discovered that IL-13 added to this embodiment of Airway-on-Chip effects both the epithelial cell layer in the upper channel with an air interface and the endothelial cells in the lower channel under media flow conditions. FIG. 9A is a schematic illustration showing IL-13 in the context of an Airway-on-Chip, where IL-13 effects both epithelial cells in the upper channel with an air interface and endothelial cells in the lower channel under flow (left). […] IL-13 is added to the endothelial channel at an exemplary 100 ng/ml for an exemplary 7 days.
This hyperplasia effect can be inhibited by Tofacitinib, an inhibitor of the JAK/STAT pathway (Janus Kinase (JAK) and Signal Transducer and Activator of Transcription (STAT)).
Creation of a Th2 microenvironment through IL-13 stimulation induces an asthma-like phenotype in the Airway Chip. Exacerbation is then triggered by infecting with human rhinovirus 16. […]

endothelial cells = assay: IL-13 effects on endothelial cells of Airway-on-Chip (adhesion molecule gene and protein expression); assay type: cell-based, human
Text: Induced gene expression for adhesion molecules was also observed after IL-13 treatment, FIG. 9C. Examples of IL-13 induced Selectins (P and E) and ICAM-1 (Intercellular Adhesion Molecule 1) and VCAM-1 (vascular cell adhesion molecule-1). Doerr, “The condition-dependent proteome.” Nat Methods. 2016 Febuary; 13(2):117.
Other compounds tested included Interleukin alpha (IL1A), Interleukin beta (IL1B), Interleukin-6 (IL6), Interleukin-8 (IL8), The chemokine (C-C motif) ligand 2 (CCL2), C-C Motif Chemokine Receptor 4 (CCR4), Protein Tyrosine Phosphatase, Receptor Type C (PTPRC), Intercellular Adhesion Molecule 1 (ICAM1), Selectin P (SELP), Selectin E (SELE), Prostaglandin-Endoperoxide Synthase 2 (PTGS2), Transforming Growth Factor Beta 1 (TGFB1), SMAD Family Member 7 (SMAD7), Complement C3 (C3), Angiotensin I Converting Enzyme (ACE), cluster of differentiation 34: CD34 antigen: CD34 molecule (CD34) and Nuclear Factor Of Activated T-Cells 4 (NFATC4).
In one embodiment, an asthma phenotype was generated using IL-13 stimulation. This stimulation led to the activation of human endothelium at 48 hours of treatment. IL-13 induces vessel (endothelial cell) wall priming as part of recruitment of immune cells. […] IL-13 100 ng/mL (right panels) vs. no treatment controls (left panels) VE-Cadherin (red), ICAM-1 (green) in the upper panels. VCAM-1 (red) VE-Cadherin (green). […]

Human Airway Epithelium = assay: Cilia beating frequency on-chip; assay type: cell-based; settings: IL-13 stimulation
HRV-16 = HRV-16 one step growth curves in infected Airway chips treated with IL-13 or not; assay type: cell-based, human rhinovirus 16; settings: HRV-16 MOI=2
Experimental: An exemplary virus, Human rhinovirus 16 (HRV16: A16 or type 16, referring to a single stranded RNA virus), in capsid form, was added at a multiplicity of infection of 2 to the upper channel and incubated at 33° C. for 3 hours. Infected chips (n=3) were washed apically (upper channel) daily and replicating virus in the wash fluid was quantified. HRV16 Titer (Log 10 TCID 50/mL) vs time post infection (hours). TCID50 refers to a tissue culture infectious dose, which will infect 50% if the cells in a monolayer challenged with the viral inoculum.

[4] = tested on: IFN-λ1, IP-10/CXCL10, IL-6 secretion; assay: Interferon, chemokine and cytokine secretion after HRV16 infection of Airway Chips; assay type: cell-based, human
Text: HRV-16-induced interferons, chemokines and pro-inflammatory cytokines profile is altered by IL-13 treatment in the severe asthma chip as shown by high resolution, kinetic profiles of cytokine secretion. These graphs (FIG. 17A-C) show results using a method for identifying secretory phases (i.e. I, II, III, and IV) of essential inflammatory cytokines.
FIG. 17A-C HRV-16-induced interferons, chemokines and pro-inflammatory cytokines profile is altered by IL-13 treatment in one embodiment of a severe asthma on-chip. These exemplary graphs show results from high resolution, kinetic profiles of an IFN Lambda 1 response FIG. 17A; IP-10/CXCL10 FIG. 17B; IL-6 response FIG. 17C; following HRV16 infection. A severe asthma on-chip was stimulated with IL-13 (lower red line and squares) while a duplicate chip was not stimulated with IL-13 (upper blue line and circles). IL-13 treatment was over 72 hours post infection. Data represent mean±SEM of cells from three to four different donors, with one or two biological replicates (chips) per donor.
Charts show IFN-λ1 (pg/mL) and IP-10/CXCL10 (pg/mL) measured in apical and basal secretions collected at 24, 48 and 72 h post HRV16 infection comparing control, IL-13 alone, HRV-16 alone and combined treatments.
Thus, IL-13 may delay or prevent IL-6-driven resolution of HRV-induced inflammation. Charts (i.e. readouts) show IL-6 (pg/mL) and IL-8 (pg/mL) measured in apical and basal secretions collected at 24, 48 and 72 h post HRV16 infection comparing control, IL-13 alone, HRV-16 alone and combined treatments.

For `C[C@@H](O)[C@H]1C(=O)N2C(C(=O)O)=C(SCCN=CN)C[C@H]12` [Imipenem], the “permeability of airway cells to imipenem” value (P. aeruginosa) was “impermeable”.
With `CC[C@@H](Nc1c(Nc2cccc(C(=O)N(C)C)c2O)c(=O)c1=O)c1ccc(C)o1` [MK-7123] the “inhibition of relevant physiological responses (neutrophil recruitment)” value (human neutrophil [1]; CXCR2 antagonist 10 μM) was “greater than 90%”, the “neutrophil attachment in the lower channel” value (human neutrophil [1]; HRV-16 infections, with or without IL-13 stimulation) was “reduced neutrophil attachment” and the neutrophil recruitment (human neutrophil [1]; MK-7123 10 microM, three stimulation conditions (HRV-16, IL-13, IL-13+HRV)) was “inhibits neutrophil recruitment; also recorded: significantly reduced neutrophil recruitment”. The “neutrophil attachment in the lower channel” value (human neutrophil [1]; cells stimulated with IL-13 alone) was “increased attachment”, the “adhesion of neutrophil cells on endothelial cell surfaces” value (human neutrophil [2]; 10 microliters of CXCR2 inhibitor added to the lower channel, vs no treatment) was “reduced adhesion of neutrophil cells” and the “number of spots (neutrophil cells, N spots) counted over time (extravasation)” value (human neutrophil [2]; up to 600 seconds) was “remains about the same”. For the same compound, the “neutrophil mobility (crawling) and trans-migration” value (human neutrophil [2]; severe asthma chip, 10 μM) was “reduces neutrophil mobility and limits trans-migration”.
With `CN[C@@H]1C[C@H]2O[C@@](C)([C@@H]1OC)n1c3ccccc3c3c4c(c5c6ccccc6n2c5c31)C(=O)NC4` [Staurosporin] the “apoptotic cell numbers (TUNEL)” value [3] was “increased apoptotic cell numbers”.
With `C[C@@H]1CCN(C(=O)CC#N)C[C@@H]1N(C)c1ncnc2[nH]ccc12` [Tofacitinib] the “effect on IL-13 induced goblet cell hyperplasia” value (goblet cells; IL-13+Tofacitinib) was “inhibited”.
With “IL-13: TH2 cytokine used to stimulate an asthma-like phenotype on-chip” the neutrophil recruitment (human neutrophil [1]; IL-13+HRV vs either alone) was “additive increase in neutrophil recruitment”, the neutrophil recruitment (human neutrophil [1]; IL-13-treated chips vs non-stimulated chips) was “increased neutrophil recruitment” and the goblet cell hyperplasia (goblet cells; IL-13 100 ng/ml, 7 days, endothelial channel) was “induced goblet cell hyperplasia”. For the same compound, the “adhesion molecule (ICAM-1, VCAM-1, VE-Cadherin) protein expression, immunostaining” value (endothelial cells; IL-13 100 ng/mL, 48 hours) was “increased adhesion molecule expression”, the “adhesion protein gene expression in endothelial cells (fold over non-treated)” value (endothelial cells; IL-13 treatment) was “up regulates adhesion proteins” and the cilia beating frequency (Human Airway Epithelium) was “reduces cilia beating frequency”. For the same compound, the “HRV infectivity (HRV-16 growth)” value (HRV-16) was “does not alter HRV infectivity”, the “epithelial interferon response after HRV-16 infection” value ([4]; apical/basal secretions, 24-72 h post infection) was “impairs epithelial interferon response; also recorded: reduces HRV16-induced interferon response” and the “kinetic profile of IFN Lambda 1, CXCL10 and IL-6 secretion” value ([4]; over 3 days (72 hours) post HRV16 infection) was “inhibits secretion of IFN Lambda 1, CXCL10 and IL-6”. For the same compound, the “HRV16-induced IL-6 secretion” value ([4]; prior stimulation with IL-13, 24, 48, 72 h post infection) was “inhibited”.
